Among the data in patent publication US8053574B2, “Organic compounds” (Novartis AG, priority 2007, dated 2011) are Ki values, retold here.

The test deals with PI3K γ (Homo sapiens, UniProt P48736). In words: PI3 kinase phosphorylation assay (Biological Method 1), Ki γ. In kind it is biochemical. The method, then:
The compounds of the invention were synthesized according to the examples provided above. PI3K inhibitory (IC50) values of the compounds were determined according to Biological Method 1.
Assay 1: Homogenous Solution Phase Assay
Compounds to be tested are dissolved in DMSO and directly distributed into 384-well flashplates at 1.25 μL per well. To start the reaction, 20 μL of 6 nM PI3 kinase are added into each well followed by 20 μL of 400 nM ATP containing a trace of radiolabeled ATP and 900 nM 1-alpha-phosphatidylinositol (PI). The plates are briefly centrifuged to remove any air gap. The reaction is performed for 15 minutes and then stopped by the addition of 20 μL of 100 mM EDTA. The stopped reaction is incubated overnight at RT to allow the lipid substrate to bind by hydrophobic interaction to the surface of the flashplate. The liquid in the wells is then washed away, and the labeled substrate is detected with scintillation counting.
Assay 2: One Step Solid Phase Assay
This method is similar to Assay 1 except that the lipid substrate (1-alpha-phosphatidylinositol (PI)) is first dissolved in a coating buffer and incubated on flashplate at room temperature overnight to allow the lipid substrate to bind by hydrophobic interaction to the surface of the flashplate. Unbound substrate is then washed away. On the day of assay, 20 μL of 6 nM PI3 kinase are added into each well followed by 20 μL of 400 nM ATP containing trace of radiolabeled ATP. Compounds are added together with enzyme and ATP to the lipid-coated plates. The plates are briefly centrifuged to remove any air gap. The reaction is performed for two to three hours. The reaction is stopped by addition of 20 μL of 100 mM EDTA or by immediate plate washing. Phosphorylated lipid substrate is detected by scintillation counting.
Assay 3: ATP Depletion Assay
Compounds to be tested are dissolved in DMSO and directly distributed into a black 384-well plate at 1.25 μL per well. To start the reaction, 25 μL of 10 nM PI3 kinase and 5 μg/mL 1-alpha-phosphatidylinositol (PI) are added into each well followed by 25 μL of 2 μM ATP. The reaction is performed until approx 50% of the ATP is depleted, and then stopped by the addition of 25 μL of KinaseGlo solution. The stopped reaction is incubated for 5 minutes and the remaining ATP is then detected via luminescence.

The mark [1] stands for this setting: Table 2, compounds of formula X.
Setting [2] is: Table 1, compounds of formula X.
The mark [3] stands for this setting: Table 3, compounds of formula XI.

For orientation: Ki means a dissociation constant, usually derived from enzyme kinetics or from competition with a known ligand.

Chain of PI3K γ (P48736 whole entry): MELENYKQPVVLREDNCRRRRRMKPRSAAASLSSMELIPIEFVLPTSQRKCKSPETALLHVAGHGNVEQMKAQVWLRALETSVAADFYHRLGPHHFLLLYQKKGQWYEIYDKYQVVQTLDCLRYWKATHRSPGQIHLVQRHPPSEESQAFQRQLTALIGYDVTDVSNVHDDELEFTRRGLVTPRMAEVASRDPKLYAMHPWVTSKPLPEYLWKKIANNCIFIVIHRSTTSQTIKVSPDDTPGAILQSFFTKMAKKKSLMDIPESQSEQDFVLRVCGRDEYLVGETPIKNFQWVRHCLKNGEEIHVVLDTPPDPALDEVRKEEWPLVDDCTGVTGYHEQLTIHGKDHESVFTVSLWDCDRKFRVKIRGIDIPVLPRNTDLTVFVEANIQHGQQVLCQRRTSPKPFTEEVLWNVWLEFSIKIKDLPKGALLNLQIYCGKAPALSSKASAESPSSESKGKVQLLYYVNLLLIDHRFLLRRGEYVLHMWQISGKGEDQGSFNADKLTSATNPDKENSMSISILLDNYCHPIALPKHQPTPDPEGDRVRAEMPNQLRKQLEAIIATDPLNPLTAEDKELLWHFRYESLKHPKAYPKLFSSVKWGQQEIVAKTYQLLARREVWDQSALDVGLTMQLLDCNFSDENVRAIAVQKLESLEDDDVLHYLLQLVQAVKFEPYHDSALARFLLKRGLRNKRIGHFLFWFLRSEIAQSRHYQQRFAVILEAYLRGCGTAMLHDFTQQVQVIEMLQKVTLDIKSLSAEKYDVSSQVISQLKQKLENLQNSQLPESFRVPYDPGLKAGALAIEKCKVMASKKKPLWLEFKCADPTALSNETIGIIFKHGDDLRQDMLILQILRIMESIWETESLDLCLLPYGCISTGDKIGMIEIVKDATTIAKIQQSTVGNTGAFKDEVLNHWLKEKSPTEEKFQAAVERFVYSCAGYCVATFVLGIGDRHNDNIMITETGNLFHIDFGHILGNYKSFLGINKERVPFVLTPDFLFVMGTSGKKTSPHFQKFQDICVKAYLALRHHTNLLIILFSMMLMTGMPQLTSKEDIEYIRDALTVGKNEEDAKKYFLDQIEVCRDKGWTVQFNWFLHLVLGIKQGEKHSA

Turning to `CC(C)n1nnc(CCNC(=O)Nc2cn3cc(-c4cncnc4)ccc3n2)n1` [Example 1-4, 1-[2-(2-Isopropyl-2H-tetrazol-5-yl)-ethyl]-3-(6-pyrimidin-5-yl-imidazo[1,2-a]pyridin-2-yl)-urea], affinity under setting [1] was put at a Ki of 0.165 µM. Same read-out and setting: to `COCCOCCOc1cncc(-c2ccc3nc(NC(=O)NCCc4nnn(C(C)C)n4)cn3c2)c1` [Example 1-17, 1-[2-(2-Isopropyl-2H-tetrazol-5-yl)-ethyl]-3-(6-{5-[2-(2-methoxy-ethoxy)-ethoxy]-pyridin-3-yl}-imidazo[1,2-a]pyridin-2-yl)-urea] belongs 0.268 µM. As to `CC(C)n1nnc(CCNC(=O)Nc2cn3cc(-c4cncc(C#N)c4)ccc3n2)n1` [drawing 19], under setting [2], the Ki turned out to be 0.04 µM. Same read-out and setting: to `COc1cccc(-c2ccc3nc(NC(=O)NCCc4nnn(C(C)C)n4)cn3c2)c1` [drawing 71] belongs 1.03 µM. Take `CCNC(=O)Nc1nc2ccc(-c3ccc(OC)nc3)cc2s1` [Example 2-6, 1-Ethyl-3-[6-(6-methoxy-pyridin-3-yl)-benzothiazol-2-yl]urea]: affinity under setting [3] was put at a Ki of 0.406 µM. `CCn1nnc(CCNC(=O)Nc2cn3cc(-c4cnn(Cc5ccccc5)c4)ccc3n2)n1`: affinity under setting [2] was put at a Ki of 0.735 µM. The compound `Cc1ccccc1-c1cncc(-c2ccc3nc(NC(=O)NCCc4nnn(C(C)C)n4)cn3c2)c1` [Example 1-39, 1-[2-(2-Isopropyl-2H-tetrazol-5-yl)-ethyl]-3-[6-(5-o-tolyl-pyridin-3-yl)-imidazo[1,2-a]pyridin-2-yl]urea] had a Ki under setting [1] of 1.12 µM.

Under setting [2], `CC(C)n1nnc(CCNC(=O)Nc2cn3cc(-c4cncc(S(C)(=O)=O)c4)ccc3n2)n1` gave a Ki of 0.014 µM. On to `CCn1nnc(CCNC(=O)Nc2cn3cc(-c4ccc5c(c4)OCO5)ccc3n2)n1` [Example 1-8, 1-(6-Benzo[1,3]dioxol-5-yl-imidazo[1,2-a]pyridin-2-yl)-3-[2-(2-ethyl-2H-tetrazol-5-yl)-ethyl]urea], for which, under setting [1], the Ki was 0.303 µM. `CCn1nnc(CCNC(=O)Nc2cn3cc(-c4cnc5ccccc5c4)ccc3n2)n1` [drawing 73] registered a Ki under setting [2] of 0.57 µM. `COc1ccc(-c2ccc3nc(NC(=O)NCCc4nnn(C(C)C)n4)cn3c2)cn1` [drawing 51] came in with a Ki under setting [2] of 0.301 µM. `CCn1cnc(CCNC(=O)Nc2nc3ccc(-c4cncc(C(F)(F)F)c4)cc3s2)c1` [Example 2-12, 1-[2-(1-Ethyl-1H-imidazol-4-yl)-ethyl]-3-[6-(5-trifluoromethyl-pyridin-3-yl)-benzothiazol-2-yl]-urea] had a Ki under setting [3] of 0.142 µM. Under setting [2], `CC(C)n1nnc(CCNC(=O)Nc2cn3cc(-c4cncnc4)ccc3n2)n1` [drawing 21] had a Ki of 0.165 µM. As to `COc1ccc(-c2ccc3nc(NC(=O)NCc4cccnc4)sc3c2)cn1` [Example 2-5, 1-[6-(6-Methoxy-pyridin-3-yl)-benzothiazol-2-yl]-3-pyridin-3-ylmethyl-urea], the affinity under setting [3], expressed as Ki, was 0.149 µM.

On to `CCc1nnn(CCNC(=O)Nc2nc3ccc(-c4cncc(C(F)(F)F)c4)cc3s2)n1` [Example 2-11, 1-[2-(5-Ethyl-tetrazol-2-yl)-ethyl]-3-[6-(5-trifluoromethyl-pyridin-3-yl)-benzothiazol-2-yl]urea], for which affinity under setting [3] was put at a Ki of 0.242 µM. In the case of `CC(=O)c1cncc(-c2ccc3nc(NC(=O)NCCc4nnn(C(C)C)n4)cn3c2)c1` [Example 1-43, 1-[6-(5-Acetyl-pyridin-3-yl)-imidazo[1,2-a]pyridin-2-yl]-3-[2-(2-isopropyl-2H-tetrazol-5-yl)-ethyl]urea], the affinity under setting [1] corresponds to a Ki of 0.008 µM.

Take `CCn1nnc(CCNC(=O)Nc2cn3cc(Br)ccc3n2)n1` [Example 1-45, 1-(6-Bromo-imidazo[1,2-a]pyridin-2-yl)-3-[2-(2-ethyl-2H-tetrazol-5-yl)-ethyl]-urea]: under setting [1], the Ki was determined as 0.911 µM. Regarding `CC(C)n1nnc(CCNC(=O)Nc2cn3cc(-c4ccncc4)ccc3n2)n1` [drawing 17], under setting [2], the inhibitory constant (Ki) was 0.135 µM. Under setting [1], `CCn1nnc(CNC(=O)Nc2cn3cc(-c4cncc(C(F)(F)F)c4)ccc3n2)n1` [Example 1-21, 1-(2-Ethyl-2H-tetrazol-5-ylmethyl)-3-[6-(5-trifluoromethyl-pyridin-3-yl)-imidazo[1,2-a]pyridin-2-yl]urea] returned a Ki of 0.014 µM.

Consider `CCn1nnc(CCNC(=O)Nc2nc3cc(-c4cncc(C(F)(F)F)c4)ccn3n2)n1` [Example 3-16, 1-[2-(2-Ethyl-2H-tetrazol-5-yl)-ethyl]-3-[7-(5-trifluoromethyl-pyridin-3-yl)-[1,2,4]triazolo[1,5-a]pyridin-2-yl]-urea], for which, under “Table 4”, affinity was put at a Ki of 0.64 µM. Same read-out and setting: to `CCn1nnc(CCNC(=O)Nc2cn3cc(-c4cncc(C#N)c4)ncc3n2)n1` [Example 3-5, 1-[6-(5-Cyano-pyridin-3-yl)-imidazo[1,2-a]pyrazin-2-yl]-3-[2-(2-ethyl-2H-tetrazol-5-yl)-ethyl]-urea] belongs 0.098 µM. “1-[2-(2-Isopropyl-2H-tetrazol-5-yl)-ethyl]-3-(6-quinolin-3-yl-imidazo[1,2-a]pyridin-2-yl)-urea [Example 1-49]” gave a Ki under setting [1] of 0.57 µM. For the compound `CC(C)(C)NC(=O)CCNC(=O)Nc1cn2cc(-c3cncc(-c4ccccc4)c3)ccc2n1` [drawing 43], the Ki under setting [2] is 0.207 µM.

`CCn1nnc(CCNC(=O)Nc2nc3ccc(-c4cccnc4)cn3n2)n1` [Example 3-8, 1-[2-(2-Ethyl-2H-tetrazol-5-yl)-ethyl]-3-(6-pyridin-3-yl-[1,2,4]triazolo[1,5-a]pyridin-2-yl)-urea]: the inhibition constant (Ki) (Table 4) was 0.099 µM. Same read-out and setting: to `CCn1nnc(CCNC(=O)Nc2cn3nc(-c4cnccc4C)ccc3n2)n1` [Example 3-18, 1-[2-(2-Ethyl-2H-tetrazol-5-yl)-ethyl]-3-[6-(4-methyl-pyridin-3-yl)-imidazo[1,2-b]pyridazin-2-yl]-urea] belongs 0.248 µM. On to `CC(C)n1nnc(CCNC(=O)Nc2cn3cc(-c4ccncc4)ccc3n2)n1` [Example 1-2, 1-[2-(2-Isopropyl-2H-tetrazol-5-yl)-ethyl]-3-(6-pyridin-4-yl-imidazo[1,2-a]pyridin-2-yl)-urea], for which the affinity under setting [1] corresponds to a Ki of 0.135 µM.
